Measured values as given in US9649315B2, “Composition useful for treating disorders related to TRPA1” (HYDRA BIOSCIENCES, INC., priority 2008, dated 2017).

Tests used:
[1] = system: AITC-induced pain behavior; experiment: AITC-induced pain behavior (automated flinch detecting system) in the rat; type: in vivo; conditions: 50 mg/kg oral gavage
Protocol: Compound 1 was tested in the automated flinch detecting system described by Yaksh et al., J. Appl. Physiol 90: 2386-2402 (2001). A small metal band was loosely placed around each rat's left hind paw. The fasted rats were dosed (50 mg/kg) via oral gavage with Compound 1 (8 animals) or vehicle (8 animals, 30% Captisol® in water, pH 10). The rats were acclimatized in the test chamber prior to allyl isothiocyanate (AITC) administration. AITC was then injected into the paw of each animal, and the animal was promptly returned to the chamber. The number of paw flinches was monitored for 60 minutes. After 10 minutes, animals receiving vehicle flinched a total of about 350 times, while the treated animals flinched about 200 times. After 60 minutes the animals that had received vehicle prior to AITC administration flinched about 1950 times, while the compound pre-treated animals flinched about 1000 times.

hTRPA1 channel = hTRPA1 channel (Homo sapiens, UniProt O75762); experiment: Inhibition of TRPA1 channel activity; type: cell-based; conditions: procedure similar to WO 2007/073505; read-out: IC50 against hTRPA1 channel activity
Protocol: Compound 1 was tested using a procedure similar to the procedure outlined in WO 2007/073505.

[2] = system: formalin-induced pain behavior; experiment: Formalin-induced pain behavior in rats; type: in vivo, rat; conditions: 50 mg/kg oral, one hour prior to intraplantar formalin (3%), observed for 2 minutes following injection
Protocol: Compound 1 was tested in the formalin-induced pain test reported by Dubuisson et al., Pain 1977 December; 4(2):161-74. The compound was dosed orally in rats (8 animals) at 50 mg/kg, one hour prior to intraplantar formalin (3%) injection. The control group (8 animals) received vehicle (30% Captisol® in water, pH 10). […] The duration of pain behavior in the treated animals was reduced by about 30%, compared to the animals who received vehicle.

Chain of hTRPA1 channel (O75762 whole entry): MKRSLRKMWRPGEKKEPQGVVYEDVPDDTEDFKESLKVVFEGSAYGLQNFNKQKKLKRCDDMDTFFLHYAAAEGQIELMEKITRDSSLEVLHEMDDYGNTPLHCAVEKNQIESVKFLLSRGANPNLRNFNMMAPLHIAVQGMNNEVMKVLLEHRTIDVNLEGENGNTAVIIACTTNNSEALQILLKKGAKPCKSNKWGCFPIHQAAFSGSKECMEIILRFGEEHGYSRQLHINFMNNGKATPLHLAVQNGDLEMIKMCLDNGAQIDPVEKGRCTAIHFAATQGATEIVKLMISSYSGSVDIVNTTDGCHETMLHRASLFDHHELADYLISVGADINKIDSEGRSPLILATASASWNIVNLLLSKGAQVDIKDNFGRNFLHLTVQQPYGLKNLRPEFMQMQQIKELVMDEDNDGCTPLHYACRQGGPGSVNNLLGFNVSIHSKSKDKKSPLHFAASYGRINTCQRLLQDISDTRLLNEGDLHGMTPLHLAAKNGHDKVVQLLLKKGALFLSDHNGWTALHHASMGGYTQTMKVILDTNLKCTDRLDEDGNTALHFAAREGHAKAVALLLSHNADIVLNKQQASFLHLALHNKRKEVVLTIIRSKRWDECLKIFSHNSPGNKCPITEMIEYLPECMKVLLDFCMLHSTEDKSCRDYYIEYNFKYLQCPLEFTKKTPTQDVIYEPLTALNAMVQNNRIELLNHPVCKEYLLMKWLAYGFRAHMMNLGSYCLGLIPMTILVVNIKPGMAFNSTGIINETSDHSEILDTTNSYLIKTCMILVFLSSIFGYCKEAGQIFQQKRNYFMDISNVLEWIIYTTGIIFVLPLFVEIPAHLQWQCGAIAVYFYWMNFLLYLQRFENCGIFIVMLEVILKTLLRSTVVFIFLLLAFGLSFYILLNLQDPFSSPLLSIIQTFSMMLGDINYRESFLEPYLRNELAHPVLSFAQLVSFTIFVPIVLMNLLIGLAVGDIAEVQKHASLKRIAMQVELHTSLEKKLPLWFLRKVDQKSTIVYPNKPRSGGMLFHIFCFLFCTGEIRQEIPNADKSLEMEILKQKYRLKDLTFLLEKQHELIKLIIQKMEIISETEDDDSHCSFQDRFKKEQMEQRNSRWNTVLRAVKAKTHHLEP

C[C@H]1CCCN1c1ccc(-c2csc(NC(=O)Cn3cnc4c3c(=O)n(C)c(=O)n4C)n2)cc1F [Compound 1]
total number of paw flinches after 10 minutes ([1]; fasted rats, AITC injected into paw, after 10 minutes (vehicle about 350)): about 200 times | total number of paw flinches after 60 minutes ([1]; fasted rats, AITC injected into paw, after 60 minutes (vehicle about 1950)): about 1000 times | effect on AITC-induced pain behavior ([1]; rats): able to reduce the AITC-induced pain behavior | IC50 (hTRPA1 channel): ~4 nM | reduction of duration of pain behavior compared to vehicle [2]: about 30%
